≈ marks a conversion by molar mass, not a printed value. Where only a bound is given, the exact number is not on record here.

For test [1], the system named is APAE001 (ATCC27853). Kind of test: MIC broth microdilution, APAE001. Conditions: for MIC: Pseudomonas aeruginosa, ATCC27853, read-out: MIC APAE001, APAE001 is ATCC27853. The format is cell-based, P. aeruginosa. The method, boiled down: (§1)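 MICs come from broth microdilution in cation-adjusted Mueller-Hinton broth, final inoculum 3×10^5–7×10^5 CFU/mL, 18-24 hours at 35° C. Levofloxacin and QC strains served as assay controls.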

For test [2], the system named is ASAU001 (laboratory strain of S. aureus, ATCC29213). The test can be described thus: MIC broth microdilution, ASAU001. The format is cell-based. Conditions: for MIC: Staphylococcus aureus, ATCC29213, read-out: MIC ASAU001. The method, boiled down: as §1
The subject of test [3] is AECO001 HSA AGP. Kind of test: MIC broth microdilution, AECO001 HSA AGP. The class given is cell-based, E. coli. Conditions: for MIC: Escherichia coli. The method, boiled down:
as §1

Test [4] concerns AABA1060 (clinical isolate of Acinetobacter baumannii). The test can be described thus: MIC broth microdilution, AABA1060. The conditions noted are these: for MIC: Acinetobacter baumannii, read-out: MIC AABA1060. The class given is cell-based. The method, boiled down:
as §1

Test [5] relates to AECO063 (ATCC25922 bearing an acrAB mutation). Kind of test: microbe, parasite or virus in culture. Conditions: for MIC: Escherichia coli, ATCC25922, read-out: MIC AECO063. The class given is cell-based, E. coli. The method, boiled down: as §1
Test [6] deals with AECO001 (ATCC25922). Kind of test: MIC broth microdilution, AECO001. Conditions: for MIC: Escherichia coli, ATCC25922, read-out: MIC AECO001. The class given is cell-based, E. coli. The method, boiled down: as §1
The subject of test [7] is APAE006 (strain of P. aeruginosa in which all efflux pumps are inactivated). The test can be described thus: microbe, parasite or virus in culture. The class given is cell-based. The conditions noted are these: for MIC: Pseudomonas aeruginosa, read-out: MIC APAE006, P. aeruginosa, all efflux pumps inactivated. In short, it runs like this:
(§2)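 Growth inhibition was scored by CLSI broth microdilution using cation-adjusted Mueller-Hinton broth and a final inoculum between 3×10^5 and 7×10^5 CFU/mL, incubated 18-24 hours at 35° C.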

Test [8] deals with APAE006 in the presence of 8 micrograms per milliliter of polymyxin B nonapeptide. The class given is cell-based, P. aeruginosa. The conditions noted are these: in the presence of 8 micrograms per milliliter of polymyxin B nonapeptide. The method, boiled down: as §2

Regarding `CCOCc1ccc(C#Cc2ccc(C(=O)N[C@H](C(=O)NO)[C@@H](C)N)cc2)cc1` [Example 120-1, N-((1S,2R)-2-Amino-1-hydroxycarbamoyl-propyl)-4-(4-ethoxymethyl-phenylethynyl)-benzamide], the MIC in test [1] is < 2 µg/mL; in test [2], 16 to 64 µg/mL (≈ 40.5 to 162 µM); in test [3], 2 to 16 µg/mL (≈ 5.06 to 40.5 µM); in test [4] it was 2 to 16 µg/mL (≈ 5.06 to 40.5 µM); in test [5], < 2 µg/mL; in test [6], < 2 µg/mL. Also, the MIC in test [7] was < 2 µg/mL. The “MIC APAE006 + PMBN” value in test [8] is on record as “A (MIC's of 2.0 μg/mL or less = A)”.

For the compound `C[C@@H](N)[C@H](NC(=O)c1ccc(C#Cc2ccc(CS(C)(=O)=O)cc2)cc1)C(=O)NO` [Example 120-2], the MIC in test [1] is 2 to 16 µg/mL (≈ 4.66 to 37.3 µM); in test [2] it was 16 to 64 µg/mL (≈ 37.3 to 149 µM); in test [3], 16 to 64 µg/mL (≈ 37.3 to 149 µM); in test [4], 16 to 64 µg/mL (≈ 37.3 to 149 µM); in test [5], < 2 µg/mL; in test [6], 2 to 16 µg/mL (≈ 4.66 to 37.3 µM). Besides, the MIC in test [7] was < 2 µg/mL. For the same compound, the “MIC APAE006 + PMBN” value in test [8] is “A (MIC's of 2.0 μg/mL or less = A)”.

Take `C[C@@H](N)[C@H](NC(=O)c1ccc(C#Cc2ccc(CCO)cc2)cc1)C(=O)NO` [Example 120-3]: the MIC was < 2 µg/mL in test [1]; > 64 µg/mL in test [2]; 2 to 16 µg/mL (≈ 5.24 to 41.9 µM) in test [3]; 2 to 16 µg/mL (≈ 5.24 to 41.9 µM) in test [4]; < 2 µg/mL in test [5]; < 2 µg/mL in test [6]. In addition, in test [7], the MIC is < 2 µg/mL. In test [8], the “MIC APAE006 + PMBN” value is given as “A (MIC's of 2.0 μg/mL or less = A)”.

For the compound `O=CN(O)CCNC(=O)c1ccc(C#Cc2ccc(CN3CCOCC3)cc2)cc1` [Example 127-1, N-[2-(Formyl-hydroxyamino)-ethyl]-4-(4-morpholin-4-ylmethyl-phenylethynyl)-benzamide], the MIC in test [1] was > 64 µg/mL; in test [2], > 64 µg/mL; in test [3] it was 16 to 64 µg/mL (≈ 39.3 to 157 µM); in test [4], > 64 µg/mL; in test [5], 2 to 16 µg/mL (≈ 4.91 to 39.3 µM); in test [6], 16 to 64 µg/mL (≈ 39.3 to 157 µM). In test [7], the MIC was 16 to 64 µg/mL (≈ 39.3 to 157 µM). In test [8], the “MIC APAE006 + PMBN” value was “C (MIC's of greater than 16.0 μg/mL to 64.0 μg/mL = C)”.

With `O=CN(O)CC(CO)NC(=O)c1ccc(C#Cc2ccc(CN3CCOCC3)cc2)cc1` (stereo not shown) [Example 128-1, N-[2-(Formyl-hydroxy-amino)-1-hydroxymethyl-ethyl]-4-(4-morpholin-4-yl-methyl-phenylethynyl)-benzamide], in test [1] (APAE001 is ATCC27853), the “MIC APAE001” value was “C (MIC's of greater than 16.0 μg/mL to 64.0 μg/mL = C)”. In addition, in test [2] (S. aureus ATCC29213), the “MIC ASAU001” value is “C (MIC's of greater than 16.0 μg/mL to 64.0 μg/mL = C)”. The “MIC AECO001 HSA AGP” value in test [3] was “C (MIC's of greater than 16.0 μg/mL to 64.0 μg/mL = C)”. In test [4] (clinical isolate of Acinetobacter baumannii), the “MIC AABA1060” value was “C (MIC's of greater than 16.0 μg/mL to 64.0 μg/mL = C)”. Also, in test [5] (ATCC25922 bearing an acrAB mutation), the “MIC AECO063” value is on record as “C (MIC's of greater than 16.0 μg/mL to 64.0 μg/mL = C)”. Also, the “MIC AECO001” value in test [6] (AECO001 is ATCC25922) is reported as “C (MIC's of greater than 16.0 μg/mL to 64.0 μg/mL = C)”. Moreover, in test [7] (P. aeruginosa, all efflux pumps inactivated), the “MIC APAE006” value was “C (MIC's of greater than 16.0 μg/mL to 64.0 μg/mL = C)”. Further, in test [8], the “MIC APAE006 + PMBN” value is on record as “C (MIC's of greater than 16.0 μg/mL to 64.0 μg/mL = C)”.

`C[C@@H](N)[C@H](NC(=O)c1ccc(C#Cc2ccc(CN)cc2)cc1)C(=O)NO` [Example 131-1, N-((1S,2R)-2-Amino-1-hydroxycarbamoyl-propyl)-4-(4-aminomethyl-phenylethynyl)-benzamide]: the MIC in test [1] was 2 to 16 µg/mL (≈ 5.46 to 43.7 µM); in test [2], > 64 µg/mL; in test [3] it was > 64 µg/mL; in test [4], > 64 µg/mL; in test [5] it was 16 to 64 µg/mL (≈ 43.7 to 175 µM); in test [6] it was 16 to 64 µg/mL (≈ 43.7 to 175 µM). Besides, the MIC in test [7] was < 2 µg/mL. Moreover, the “MIC APAE006 + PMBN” value in test [8] is reported as “A (MIC's of 2.0 μg/mL or less = A)”.

`C[C@@H](N)[C@H](NC(=O)c1ccc(C#Cc2ccc(CNS(C)(=O)=O)cc2)cc1)C(=O)NO` [Example 131-2]: the MIC in test [1] is < 2 µg/mL; in test [2], > 64 µg/mL; in test [3], 16 to 64 µg/mL (≈ 36 to 144 µM); in test [4], 16 to 64 µg/mL (≈ 36 to 144 µM); in test [5], < 2 µg/mL; in test [6] it was 2 to 16 µg/mL (≈ 4.5 to 36 µM). In addition, the MIC in test [7] was < 2 µg/mL. Also, in test [8], the “MIC APAE006 + PMBN” value is recorded as “A (MIC's of 2.0 μg/mL or less = A)”.

Turning to `C[C@@H](N)[C@H](NC(=O)c1ccc(C#Cc2ccc(CNC(=N)N)cc2)cc1)C(=O)NO` [Example 131-3, N-((1S,2R)-2-Amino-1-hydroxycarbamoyl-propyl)-4-(4-guanidinomethyl-phenylethynyl)-benzamide], the MIC in test [1] lay within 2 to 16 µg/mL (≈ 4.9 to 39.2 µM); in test [2] it was 16 to 64 µg/mL (≈ 39.2 to 157 µM); in test [3], 16 to 64 µg/mL (≈ 39.2 to 157 µM); in test [4], 16 to 64 µg/mL (≈ 39.2 to 157 µM); in test [5] it was 16 to 64 µg/mL (≈ 39.2 to 157 µM); in test [6] it was 16 to 64 µg/mL (≈ 39.2 to 157 µM). For the same compound, the MIC in test [7] was < 2 µg/mL. Also, the “MIC APAE006 + PMBN” value in test [8] is reported as “A (MIC's of 2.0 μg/mL or less = A)”.

Values taken from US9617256B2 (priority 2007, dated 2017).
